Read-outs that look alike come from different tables or passages of the source.
Assays:
[1] = Physicochemical properties (log P, pKa), experimental data; details: for pKa: ampholyte
Description: A PBPK model of tegoprazan was built and verified by both the bottom-up approach using in vitro data for maintaining a mechanistic PBPK structure and the top-down approach using clinical PK results for maintaining a descriptive structure (Figure 1). The initial PBPK model of tegoprazan was constructed using physicochemical properties (e.g., molecular weight, log P, pKa), in vitro data (e.g., permeability, intrinsic clearance), and in vivo data (e.g., renal clearance) provided by HK inno.N Corp. (Seoul, Korea). The commercially available software SimCYP simulator v19 (SimCYP Limited, Certara, Sheffield, UK) was used to build the PBPK model and to generate the PK simulations. The PBPK-model-predicted PK profiles and parameters of tegoprazan were compared with the observed PK profiles and parameters from previously conducted clinical studies (Supplementary Table S1). The specific model configuration related to absorption, distribution, and elimination is described below.

[2] = Blood:plasma partition ratio and fraction unbound in plasma, experimental data; format: in vitro ADME
[3] = Parallel artificial membrane permeability assay (PAMPA); format: in vitro ADME
Description: The advanced dissolution, absorption, and metabolism model was used. The unbound fraction of the drug in enterocytes (fuGut) and the human jejunum effective permeability (Peff,man) were predicted because these values were not routinely measured (Table 1). The value of fuGut was predicted using the values of in vitro parameters, such as the octanol:water partition coefficient, the fraction of intracellular water, and other distribution-related parameters (in-house data). The value of Peff,man was predicted using parallel artificial membrane permeation assay permeability (in-house data).

CYP1A2 = target: T1, CYP1A2 (Homo sapiens, UniProt P05177); assay: Intrinsic clearance in human liver microsomes with CYP inhibitors; format: in vitro ADME
T1 construct: from tissue; host or cells: human liver microsomes
T1 sequence (P05177 1-516): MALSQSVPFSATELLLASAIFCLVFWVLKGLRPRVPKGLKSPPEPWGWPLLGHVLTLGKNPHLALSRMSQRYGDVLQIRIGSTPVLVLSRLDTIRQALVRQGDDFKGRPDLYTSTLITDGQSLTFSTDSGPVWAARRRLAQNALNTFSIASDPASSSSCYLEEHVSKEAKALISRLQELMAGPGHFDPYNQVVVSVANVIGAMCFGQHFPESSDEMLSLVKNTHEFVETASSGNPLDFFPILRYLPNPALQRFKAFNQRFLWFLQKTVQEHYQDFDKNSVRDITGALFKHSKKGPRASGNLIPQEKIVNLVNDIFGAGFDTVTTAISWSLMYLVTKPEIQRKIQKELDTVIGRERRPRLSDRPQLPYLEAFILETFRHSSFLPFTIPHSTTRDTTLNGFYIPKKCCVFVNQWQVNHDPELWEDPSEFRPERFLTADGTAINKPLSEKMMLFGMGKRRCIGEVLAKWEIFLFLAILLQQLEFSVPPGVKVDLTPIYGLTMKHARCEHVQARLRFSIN
Description: (§1) The elimination of the PBPK model consisted of enzyme kinetic and renal clearance (Table 1). Intrinsic clearances (CLint) of tegoprazan by various CYPs were determined by an in vitro study that measured the fraction of CLint inhibited by adding the inhibitors of CYP1A2, CYP2C9, CYP2C19, CYP2D6, and CYP3A to human liver microsomes (in-house data). Based on the in vitro data, an in vitro to in vivo extrapolation (IVIVE) approach was used to estimate the in vivo CLint by each CYP enzyme. Renal clearance as an additional clearance was used from the result of a single-oral-dose study of tegoprazan 100 mg.

CYP2C19 = target: T2, CYP2C19 (Homo sapiens, UniProt P33261); assay: as above; format: in vitro ADME
T2 construct: from tissue; host or cells: human liver microsomes
T2 sequence (P33261 whole entry): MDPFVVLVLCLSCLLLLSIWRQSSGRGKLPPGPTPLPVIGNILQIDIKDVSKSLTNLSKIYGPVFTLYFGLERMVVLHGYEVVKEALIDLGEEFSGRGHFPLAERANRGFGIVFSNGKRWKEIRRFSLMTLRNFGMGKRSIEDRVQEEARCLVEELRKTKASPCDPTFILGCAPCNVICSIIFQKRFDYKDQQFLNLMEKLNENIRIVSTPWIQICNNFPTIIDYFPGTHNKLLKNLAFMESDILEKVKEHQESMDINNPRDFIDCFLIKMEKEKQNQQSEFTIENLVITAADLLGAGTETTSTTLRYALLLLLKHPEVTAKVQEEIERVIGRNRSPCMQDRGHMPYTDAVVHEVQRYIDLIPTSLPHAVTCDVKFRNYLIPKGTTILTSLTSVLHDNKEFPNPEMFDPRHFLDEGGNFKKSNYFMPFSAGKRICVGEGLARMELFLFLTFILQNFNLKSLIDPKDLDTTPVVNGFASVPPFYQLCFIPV
Description: as §1

CYP2C9 = target: T3, CYP2C9 (Homo sapiens, UniProt P11712); assay: as above; format: in vitro ADME
T3 construct: from tissue; host or cells: human liver microsomes
T3 sequence (P11712 whole entry): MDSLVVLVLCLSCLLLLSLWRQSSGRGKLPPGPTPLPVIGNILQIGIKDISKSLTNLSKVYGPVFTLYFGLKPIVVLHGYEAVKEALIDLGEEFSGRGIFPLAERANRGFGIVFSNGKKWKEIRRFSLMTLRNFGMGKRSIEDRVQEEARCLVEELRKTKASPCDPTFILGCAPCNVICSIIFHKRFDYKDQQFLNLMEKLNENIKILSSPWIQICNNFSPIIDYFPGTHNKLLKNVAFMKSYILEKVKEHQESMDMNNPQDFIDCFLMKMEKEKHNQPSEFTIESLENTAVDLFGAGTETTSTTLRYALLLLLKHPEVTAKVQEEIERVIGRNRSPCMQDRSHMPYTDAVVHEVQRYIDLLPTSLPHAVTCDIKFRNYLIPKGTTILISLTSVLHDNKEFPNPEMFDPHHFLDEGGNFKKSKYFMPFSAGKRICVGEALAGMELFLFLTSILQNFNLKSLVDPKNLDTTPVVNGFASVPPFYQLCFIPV
Description: as §1

CYP2D6 = target: T4, CYP2D6 (Homo sapiens, UniProt P10635); assay: as above; format: in vitro ADME
T4 construct: from tissue; host or cells: human liver microsomes
T4 sequence (P10635 whole entry): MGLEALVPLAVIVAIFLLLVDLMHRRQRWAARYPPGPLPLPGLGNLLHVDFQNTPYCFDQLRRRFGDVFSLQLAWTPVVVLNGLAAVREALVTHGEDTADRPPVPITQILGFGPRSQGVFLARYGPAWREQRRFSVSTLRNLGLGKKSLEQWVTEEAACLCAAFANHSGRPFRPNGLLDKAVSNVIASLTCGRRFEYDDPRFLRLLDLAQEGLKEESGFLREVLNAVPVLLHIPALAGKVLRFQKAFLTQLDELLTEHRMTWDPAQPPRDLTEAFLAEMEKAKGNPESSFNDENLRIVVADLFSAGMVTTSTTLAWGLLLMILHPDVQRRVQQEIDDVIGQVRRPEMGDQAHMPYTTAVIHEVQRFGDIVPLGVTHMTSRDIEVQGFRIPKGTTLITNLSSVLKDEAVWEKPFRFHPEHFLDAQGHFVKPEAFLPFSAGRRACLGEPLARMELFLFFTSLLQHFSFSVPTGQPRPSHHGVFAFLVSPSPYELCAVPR
Description: as §1

CYP3A4 = CYP3A4 intrinsic clearance by parameter estimation against clinical data; parameters: species or system human; details: estimated from clinical data, single dose 50 mg, instead of in vitro data
Description: as §1
If the predicted PK profiles and parameters were not close enough to the observed values, the PBPK model was refined by the parameter estimation approach, in which a parameter was optimized with respect to the clinical data. Parameter estimation was conducted using the genetic algorithm method and weighted-least squares as the objective function. Four parameters were simultaneously estimated in the final step of model refinement using clinical data of single-dose PK study of tegoprazan 50 mg (Table 1). The values of Q and VSAC were estimated to reflect the biphasic distribution of tegoprazan, and the value of Kp scalar was estimated because it affected the overall PK profile, especially distribution and clearance. […]

[4] = cited from earlier work; for AUCτ Obs. / Cmax Obs. / AUCinf Obs.: mean; for Tmax Obs.: median
[5] = cited from earlier work
gastric H^+/K^+-ATPase = system: gastric H^+/K^+-ATPase; parameters: method as in PMID 31437865; details: from 50 mg to 400 mg; cited from earlier work
[6] = multiple oral doses 50 mg once daily for 7 days, ref NCT03009760
[7] = multiple oral doses 100 mg once daily for 7 days, ref NCT03009760
[8] = single oral dose 25 mg, ref NCT03530228
[9] = single oral dose 50 mg, NCT03530228

Cc1nc2cc(C(=O)N(C)C)cc(O[C@H]3CCOc4cc(F)cc(F)c43)c2[nH]1 [tegoprazan]
pKa ([1]; read-out: pKa 1): 5.2 | pKa ([1]; read-out: pKa 2): 12 | logP ([1]; octanol/water, read-out: Log P (octanol:water partition coefficient)): 3 | blood plasma ratio ([2]; blood and plasma, read-out: B/P (blood:plasma partition ratio)): 0.868 | fraction unbound ([2]; plasma, read-out: fu (fraction unbound in plasma)): 0.124 | Papp [3]: 68.4 ×10⁻⁶ cm/s | CYP1A2 CLint (CYP1A2): 2.5 μL/min/mg of protein | CYP2C19 CLint (CYP2C19): 3.6 μL/min/mg of protein | CYP2C9 CLint (CYP2C9): 2.6 μL/min/mg of protein | CYP2D6 CLint (CYP2D6): 2 μL/min/mg of protein | CYP3A4 CLint (CYP3A4): 30.34 μL/min/mg of protein | AUCτ Obs. [4, 6]: 2954.9 ng·h/mL | Cmax Obs. [4, 6]: 842.8 ng/mL | Tmax Obs. [4, 6]: 1.00 h | AUCτ Obs. [4, 7]: 4768.4 ng·h/mL | Cmax Obs. [4, 7]: 1149.7 ng/mL | Tmax Obs. [4, 7]: 1.25 h | AUCinf Obs. [4, 8]: 1340.0 ng·h/mL | Cmax Obs. [4, 8]: 335.6 ng/mL | Tmax Obs. [4, 8]: 0.75 h | AUCinf Obs. [4, 9]: 2903.0 ng·h/mL | Cmax Obs. [4, 9]: 759.1 ng/mL | Tmax Obs. [4, 9]: 1.00 h | AUCinf Obs. ([4]; single oral dose 100 mg): 5998.1 ng·h/mL | Cmax Obs. ([4]; single oral dose 100 mg): 1434.5 ng/mL | Tmax Obs. ([4]; single oral dose 100 mg): 1.00 h | apparent clearance [5]: approximately 17.6 L/h | mean half-life [5]: 3.7 to 6.2 h | volume of distribution [5]: ~107.9 L | safety and tolerability ([5]; healthy adults, up to 400 mg single dose and 200 mg multiple doses): safe and tolerable | increase of systemic exposure with dose ([5]; phase 1 clinical study, healthy adults): dose proportional | Cmax when administered with food ([5]; previous studies): decreased | time to reach Cmax when administered with food ([5]; previous studies): delayed | magnitude of acid suppression (gastric H^+/K^+-ATPase): increases in a dose-dependent manner
